From patent publication US6448405B1, “Steroid receptor modulator compounds and methods” (Ligand Pharmaceuticals Incorporated, priority 1994, dated 2002) come the findings set out here.

One assay deals with T1, human PR-B (Homo sapiens, UniProt P06401).
T1 construct: expressed in transfected cells; host or cells: CV-1 cells (African green monkey kidney fibroblasts), transient transfection
T1 sequence (P06401 1-933): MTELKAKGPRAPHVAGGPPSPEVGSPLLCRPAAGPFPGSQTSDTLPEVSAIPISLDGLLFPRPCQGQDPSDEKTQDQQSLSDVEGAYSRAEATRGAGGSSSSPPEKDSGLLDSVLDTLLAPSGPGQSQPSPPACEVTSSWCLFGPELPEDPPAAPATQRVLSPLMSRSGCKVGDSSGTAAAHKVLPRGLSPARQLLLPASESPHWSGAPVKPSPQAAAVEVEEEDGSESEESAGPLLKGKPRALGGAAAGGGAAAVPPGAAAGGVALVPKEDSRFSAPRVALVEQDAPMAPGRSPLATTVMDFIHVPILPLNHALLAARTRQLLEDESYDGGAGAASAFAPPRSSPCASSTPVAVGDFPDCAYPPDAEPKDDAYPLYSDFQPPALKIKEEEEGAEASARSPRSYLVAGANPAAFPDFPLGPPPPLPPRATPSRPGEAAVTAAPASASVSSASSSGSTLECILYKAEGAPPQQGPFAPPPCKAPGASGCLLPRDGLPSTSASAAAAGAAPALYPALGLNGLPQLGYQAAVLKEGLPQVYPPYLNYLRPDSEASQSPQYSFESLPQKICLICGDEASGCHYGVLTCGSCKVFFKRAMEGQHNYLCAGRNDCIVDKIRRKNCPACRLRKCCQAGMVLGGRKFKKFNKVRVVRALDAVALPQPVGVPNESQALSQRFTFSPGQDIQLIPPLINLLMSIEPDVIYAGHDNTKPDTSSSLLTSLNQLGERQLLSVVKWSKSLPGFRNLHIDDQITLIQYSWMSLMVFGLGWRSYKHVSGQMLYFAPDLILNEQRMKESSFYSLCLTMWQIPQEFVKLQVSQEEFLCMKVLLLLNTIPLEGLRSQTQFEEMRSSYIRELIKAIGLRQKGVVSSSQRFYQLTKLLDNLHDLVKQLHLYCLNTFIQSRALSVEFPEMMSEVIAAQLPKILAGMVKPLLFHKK
Put plainly: Co-transfection assay, PR agonist and antagonist activity, CV-1 cells.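 Further: luciferase reporter driven by a hormone response element, co-transfected with human PR-B into CV-1 monkey kidney cells, agonists raise and antagonists lower the reporter signal.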 Format: cell-based.

The target of assay [1] is T2, human progesterone receptor A form (PR-A) (Homo sapiens, UniProt P06401).
T2 sequence (P06401 1-769 isoform P06401-2): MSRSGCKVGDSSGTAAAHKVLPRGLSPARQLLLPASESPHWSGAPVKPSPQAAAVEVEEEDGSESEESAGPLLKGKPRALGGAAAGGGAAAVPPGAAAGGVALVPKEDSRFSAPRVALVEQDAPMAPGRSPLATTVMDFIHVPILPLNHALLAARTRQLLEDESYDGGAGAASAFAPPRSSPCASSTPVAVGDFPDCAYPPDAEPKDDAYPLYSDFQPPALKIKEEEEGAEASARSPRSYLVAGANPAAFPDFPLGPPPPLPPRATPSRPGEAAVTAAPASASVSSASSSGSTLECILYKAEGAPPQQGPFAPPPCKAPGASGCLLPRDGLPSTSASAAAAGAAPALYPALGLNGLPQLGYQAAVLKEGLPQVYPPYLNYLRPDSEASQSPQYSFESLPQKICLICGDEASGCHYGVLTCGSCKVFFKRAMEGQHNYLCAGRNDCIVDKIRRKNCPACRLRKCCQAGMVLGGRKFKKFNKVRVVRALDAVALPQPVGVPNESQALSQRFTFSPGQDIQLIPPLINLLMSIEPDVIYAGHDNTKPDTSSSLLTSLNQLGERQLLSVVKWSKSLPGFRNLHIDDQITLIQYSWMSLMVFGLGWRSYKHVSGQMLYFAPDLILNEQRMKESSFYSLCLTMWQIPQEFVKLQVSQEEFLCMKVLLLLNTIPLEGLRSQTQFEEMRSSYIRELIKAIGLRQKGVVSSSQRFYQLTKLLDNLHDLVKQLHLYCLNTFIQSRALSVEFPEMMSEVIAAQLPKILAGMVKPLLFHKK
Put plainly: PR binding assay, baculovirus extract, [3H] progesterone. The note with it: read-out: PR Binding Ki.

Assay [2] has as its system pregnancy (implantation sites) in female mice (ICR strain). Put plainly: Implantation assay (antiprogestin activity). The note with it: R5020 1.0 mg per day. Format: in vivo, mouse. The method, then:
Mating was assumed to have taken place at 02.00 h, time 0.
Compound 150 was dissolved in sesame oil (50 mg/mL) and kept at room temperature before use. […] Control animals received an equivuivalent volume of the control vehicle, sesame oil, alone.
The animals were sacrificed, and autopsies were carried out at Day 8 of pregnancy, and numbers of implantation sites counted and recorded, and are shown in Table 7 below. Each group consisted of between 5 and 7 animals.

For the next assay, the system named is PR, AR, ER, GR and MR. Nature of the assay: cis-trans or co-transfection assay, steroid receptor panel (cross-reactivity). The assay is classed as cell-based, human. As to conditions: as seen in the Tables.

In general, Ki refers to the dissociation constant of the complex between target and ligand, obtained from inhibition or displacement. With `CC1=CC(C)(C)Nc2ccc(-c3cccc(C#N)c3)cc21` [Compound 150, 6-(3-Cyanophenyl)-1,2-dihydro-2,2,4-trimethylquinoline], the EC50 on human PR-B (agonist mode, EC50, read-out: PR Agonist CV-1 Cells Potency) is 3.2 µM. The IC50 at human PR-B (read-out: PR Antagonist CV-1 Cells Potency) is 0.024 µM. Also, the inhibition constant Ki in assay [1] was determined as 0.017 µM. Further, the “effect on pregnancy rate with simultaneous injection of PR agonist R5020” value in assay [2] is on record as “reversed to the control level”. Also, the “steroid receptor selectivity profile” value with PR, AR, ER, GR and MR was “highly selective PR antagonists”.
